What was measured:
Assay in all cases: relative viability (nuclei count vs DMSO), 5 days (fraction); higher = more cells survive
Bromopyruvate + AZD7762 = compound: C(C(=O)C(=O)O)Br [Bromopyruvate] + NC(=O)Nc1cc(-c2cccc(F)c2)sc1C(=O)N[C@H]1CCCNC1 [AZD7762] (partner 0.2 µM)
How it was run: (§1)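 Relative viability is defined as nuclei in treated wells over nuclei in vehicle wells. Duplicate plates were run and medians reported. Lung cancer cell lines in 1536-well plates were dosed by pin tool one day after seeding, with one drug or with a fixed anchor-drug dose plus five library-drug doses (not always all listed) in √10 steps, and nuclei were counted after 5 days.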

[1] = compound: C(C(=O)C(=O)O)Br [Bromopyruvate] + Nc1nc2[nH]cc(CCc3ccc(C(=O)N[C@@H](CCC(=O)O)C(=O)O)cc3)c2c(=O)[nH]1 [Pemetrexed] (partner 0.2 µM)
How it was run: as §1

[2] = compound: CC(O)(CS(=O)(=O)c1ccc(F)cc1)C(=O)Nc1ccc(C#N)c(C(F)(F)F)c1 [Bicalutamide] + N=C(N)NC(=N)NCCc1ccccc1 [Phenformin] (partner 250 µM)
How it was run: as §1

[3] = compound: C(C(=O)C(=O)O)Br [Bromopyruvate] + Cc1cc(Nc2cc(N3CCN(C)CC3)nc(Sc3ccc(NC(=O)C4CC4)cc3)n2)n[nH]1 [Tozasertib] (partner 0.1 µM)
How it was run: as §1

Q: With SW 900 as the cell line, how does the relative viability (Bromopyruvate + AZD7762; first compound 1 µM) read?
A: 0.629

Q: And the relative viability (Bromopyruvate + AZD7762; first compound 3.162 µM)?
A: 0.528

Q: And the relative viability (Bromopyruvate + AZD7762; first compound 10 µM)?
A: 0.519

Q: What about the relative viability (Bromopyruvate + AZD7762; first compound 31.62 µM) of the same cell line?
A: 0.564

Q: What about the relative viability (Bromopyruvate + AZD7762; first compound 100 µM) of the same cell line?
A: 0.66

Q: What about the relative viability ([1]; first compound 1 µM) of the same cell line?
A: 0.487

Q: And the relative viability ([1]; first compound 3.162 µM)?
A: 0.463

Q: And the relative viability ([1]; first compound 10 µM)?
A: 0.555

Q: What about the relative viability ([1]; first compound 31.62 µM) of the same cell line?
A: 0.446

Q: And the relative viability ([1]; first compound 100 µM)?
A: 0.472

Q: What about the relative viability ([2]; first compound 0.08 µM) of the same cell line?
A: 0.511

Q: What about the relative viability ([2]; first compound 0.253 µM) of the same cell line?
A: 0.555

Q: What about the relative viability ([2]; first compound 0.8 µM) of the same cell line?
A: 0.874

Q: What about the relative viability ([2]; first compound 2.53 µM) of the same cell line?
A: 0.411

Q: And the relative viability ([3]; first compound 1 µM)?
A: 0.54

Q: And the relative viability ([3]; first compound 3.162 µM)?
A: 0.455

Q: And the relative viability ([3]; first compound 10 µM)?
A: 0.44

Q: What about the relative viability ([3]; first compound 31.62 µM) of the same cell line?
A: 0.564

Q: And the relative viability ([3]; first compound 100 µM)?
A: 0.514

Source: the supplement of paper PMC10307832
